SMILES	melting point
O=C(CCN1CCN(c2ccc(F)cc2)CC1)c1cnn2c1CCCC2	141 to 142 °C
Cn1cc(C2=C(c3cn(C)c4cc(C#N)ccc34)C(=O)NC2=O)c2ccc(N)cc21	255 to 260 °C
CCC(=O)OCOC(=O)C1=C(C)N(COC)C(C)=C(C(=O)OCOC(=O)CC)C1c1cccc([N+](=O)[O-])c1	86 to 87 °C
CN(C)C(=O)Nc1nsnc1-c1c(Cl)cccc1Cl	100 to 103 °C
CCOC(=O)C1=C(C)NNC(CC)=C1c1ccco1	82 °C
COC(=O)c1cc2nc(C)n(C)c2cc1C(=O)OC	147 to 148 °C
NCC1COc2cc(Cl)cc(-c3ccc(Cl)cc3C(F)(F)F)c2N1 (stereo not given)	95 °C
CC(C)(C)c1ccc(OCCCCCCN2CCN(c3nccs3)CC2)cc1	30 to 32 °C
Cn1cc2c3c(ccc2n1)CCC3=CC#N	189 to 192 °C
COc1cc(C(=O)N2CCN(C(=O)/C=C/c3cccc(-c4cc(OC)c(OC)c(OC)c4)c3)CC2)cc(OC)c1OC	149 to 151 °C
CCOc1c(C=NO)c(=O)n(C)c(=O)n1C	115 °C
COP(=O)(OC)C(O)=Cc1ccc(C)cc1	100 to 102 °C
O=C(Cl)c1cc([N+](=O)[O-])ccc1F	59 to 60 °C
COc1ccc(-c2cc(N3CCN(C(=O)c4cc(S(N)(=O)=O)c(Cl)cc4Cl)CC3)nc(C)n2)cc1OC	150 to 160 °C
CCC(=O)C1=C(O)OC(C)(C)OC1=O	55 to 57 °C
N#Cc1ccc(OC2SCC(O)C(O)C2O)cn1 (stereo not given)	179 to 180 °C
N#Cc1cc(C2CCCCC2)c(C(=O)O)cn1	225 to 230 °C
Brc1ccc2c(c1)C(c1ccccn1)=NCc1nncn1-2	252 to 255 °C
N[C@@H](Cc1cc(F)cc(F)c1)[C@H](O)CO	93 °C
CC(C)(C)OC(=O)N1[C@@H](C2CC2)[C@H](C(=O)O)OC1(C)C	104 to 108 °C
COCOCc1nc(N)c2ncc(O)nc2n1	210 to 212 °C
CC(C(O)C=Cc1ccc(Cl)cc1)n1cncn1 (stereo not given)	117 to 118 °C
COc1ccc2c3c([nH]c2c1[N+](=O)[O-])C(O)CC3 (stereo not given)	192 °C
C=CCS(=O)(=O)c1ccc(NC(C)=O)cc1	116 to 118 °C
NC(=O)c1c(F)cc(NC2CCNCC2)cc1F	166 to 168 °C

SMILES	melting point
Cc1nccn1-c1ccc([N+](=O)[O-])cc1F	106 to 107 °C
COC(=O)CCCC#CCC1C(=O)CCCC1=O	108 to 110 °C
O=C(Nc1ccc(-n2nc(C(F)(F)F)cc2C2CC2)c(F)c1)c1c(Cl)cncc1Cl	218 to 223 °C
CC(C)(C)OC(=O)NCCOc1noc2ccc(Cl)cc12	106 to 107 °C
COc1cc2nccn2c(OC)n1	120 to 121 °C
CCCCc1nccn1Cc1c(F)cccc1Cl	106 to 108 °C
CC1(C)OC(=O)Nc2ccc(-c3coc(C=O)c3)cc21	262 to 263 °C
Cc1cc2nccn2nc1OCCCS(=O)(=O)N1CCN(C)CC1	118 to 120 °C
CCCCCCC(C)(C)c1ccc(C2=CCCN(C)C2)c(O)c1	126 to 127 °C
CC(C)(C)N1Cc2ccccc2P1(=O)c1ccccc1 (stereo not given)	89 to 91 °C
COC(=O)c1nc2cc(Cl)cc(C)c2c(O)c1C(=O)OC	117 to 119 °C
CCN1CCCOc2cc(Nc3ncc(Cl)c(N[C@@H]4CCCC[C@H]4NS(C)(=O)=O)n3)ccc21	108 to 110 °C
Cc1cc(C)c(C2C(=O)NC3(CCN(N(C)C)CC3)C2=O)c(C)c1 (stereo not given)	237 to 241 °C
CC1(C2CCCC2)Cc2cc(OCCCC#N)c(Cl)c(Cl)c2C1=O (stereo not given)	112 °C
O=C(Nc1cccc2c1C(=O)c1c-2n[nH]c1-c1ccc(N2CCNCC2)cc1)NN1CCN(CCO)CC1	279 °C
Cc1nc(=O)[nH]c2cc(N(C)C)ccc12	> 300 °C
O=C(NCCCl)NC(c1cccc(C(F)(F)F)c1)C(F)(F)F (stereo not given)	124 to 128 °C
COc1c(Cl)ccc(-c2cc(N)c(Cl)c(CNCC(=O)O)n2)c1F	189 to 191 °C
C=CC1CC2C3CCC4=CC(=O)CCC4=C3C(c3ccc(-c4ccc(OC)nc4)cc3)CC2(C)C1C(=O)C1CC1 (stereo not given)	197 °C
CC(=O)Oc1c(C)c(C)c(O)c(C(C)=NOCCOc2ccc(CC3SC(=O)NC3=O)cc2)c1C (stereo not given)	60 to 75 °C
CCc1cc(OC)c(C=O)cc1OC	46 to 47 °C
CCOC(=O)NCCN1CCC(n2c(=O)[nH]c3cc(Cl)ccc32)CC1	188 °C
O=C(O)c1cc(S(=O)(=O)NC2CCCCC2)cc2c1OCCO2	150 °C
Cc1ccccc1C1CCN(C2CCCCC2O)CC1 (single isomer, unassigned; (-))	116 to 118 °C

Other lines, results leading:

melting point	SMILES
191 to 193 °C	CC(C)S(=O)(=O)n1c(N)nc2ccc(C(=O)c3ccccc3)cc21
129 to 131 °C	Brc1ccc2c(c1)COCc1cc(Br)ccc1-2
137 to 138 °C	CC(C)(C)OC(=O)N1CC(CC(=O)O)c2ccccc21 (single isomer, unassigned; (+))
152 to 153 °C	CC(C)c1cccc(C(C)C)c1NC(=O)NCCN1CCN(CCSc2nc3ccccc3o2)CC1
164 to 165 °C	Cc1ccc2nc(/C=C/c3ccccc3)n(-c3ccccn3)c2c1
208 to 211 °C	CC(C)Oc1nccc(-c2c(-c3ccc(F)cc3)ncn2C2CCC(O)CC2)n1 (stereo not given)
129 to 130 °C	CC(NC(=O)c1sc2ccc(C(F)(F)F)cc2c1O)C(O)(c1ccccc1)c1ccccc1 (stereo not given)
242 to 243 °C	CCOC(=O)C1=C(c2ccc(-n3c(C)nc4cnccc43)nc2)NC(C)=C(C(=O)Nc2ccccn2)C1c1ccccc1Cl (stereo not given)
268 °C	CCn1c2c(c3ccccc31)S(=O)(=O)N(C)C(C(=O)Nc1ccccc1)=C2O
> 250 °C	O=C(O)C1=CS[C@@H]2/C(=C\c3ccc4nc5sccn5c4c3)C(=O)N12
66 to 68 °C	COCCN(C1CC(C)(C)Oc2ccc(OCc3ccccc3)cc21)S(C)(=O)=O (stereo not given)
160 to 161 °C	CC(=O)NCc1ccc2c(c1)N(C1CCN(CCc3ccccc3F)CC1)CC2
56 to 58 °C	CCCCc1oc2ccccc2c1C(=O)c1cc(Br)c(O[C@H](Cc2ccccc2)C(=O)O)c(Br)c1
165 to 166 °C	CC1(COc2ccc(N3CCC(Oc4ccc(OC(F)(F)F)cc4)CC3)cc2)Cn2cc([N+](=O)[O-])nc2O1 (stereo not given)
144 to 145 °C	Nc1nccn2nc(SCc3ccccc3)nc12
250 °C	Nc1c(C(=O)NC(Cc2ccc(OCc3ccccc3)cc2)C(=O)O)oc2cc(-c3ccc(Cl)cc3)ccc12 (stereo not given)
300 °C	NC(=O)c1nc(-c2ccccc2)[nH]c1N
198 to 199 °C	CC[C@H](C)[C@H](NC(=O)OCc1ccccc1)C(=O)N[C@@H](CO)Cc1c[nH]c2ccccc12
106 to 108 °C	CC(O)(CCN1CCOCC1)c1ccc(-c2ccc(Cl)cc2)cc1 (stereo not given)
111 to 113 °C	O=C(OCC1CCC(COC(=O)c2ccccc2)CC1)c1ccccc1 (stereo not given)
115 to 117 °C	O=C(O)CC1CCOc2ccc(Cl)cc21 (stereo not given)
118 to 119 °C	Nc1cccc(-c2nc3n(n2)CCc2ccccc2-3)c1
82 °C	OCCN1CCN(C(c2ccccc2)(c2ccccc2)c2ccccc2)CC1
204 °C	O=C(Cl)c1ccc(OC(=O)c2cccc(C(=O)Oc3ccc(C(=O)Cl)cc3)c2)cc1
139 to 142 °C	O=C(O)c1ccccc1Oc1ccc2ccccc2c1
308 to 312 °C	Cc1nc2cc(C(=O)O)c(C(=O)O)cc2n1C

melting point	SMILES
204 °C	COc1ccccc1C(=C1CN(C(c2ccccc2)c2ccccc2)C1)S(C)(=O)=O
144 °C	CC1(O)CC(=O)OC(CCc2ccc(OCc3ccc(F)cc3)cc2)C1 (stereo not given)
97 to 102 °C	CC(C)C[C@H](NC(=O)OCc1ccccc1)C(=O)N[C@@H](Cc1ccccc1)C(=O)CS(C)=O (stereo not given in full)
188 to 190 °C	COc1ccc(O)c(Cc2cccc(C(F)(F)F)c2)c1
74 °C	Cc1ccc(S(=O)(=O)OCCCc2c[nH]c3ccc(F)cc23)cc1
146 to 148 °C	CCSc1nc2cccc(C(=O)O)c2n1Cc1ccc(-c2ccccc2-c2nc(=O)o[nH]2)cc1
255 to 256 °C	COc1cc2sc(/C=C(\Oc3ccc(C(C)C)cc3)C(=O)O)cc2c(Cl)c1OC
148 to 149 °C	COc1cc(OC)nc(C2OC(=O)c3c(Cl)cccc32)n1 (stereo not given)
128 to 130 °C	CC(C)C[C@H](O)[C@H](O)[C@H](Cc1ccccc1)NC(=O)OC(C)(C)C
127 °C	COc1ccccc1CNC(=O)c1ccc2c(c1)N(C(C)CN1CCCC1)c1ccccc1S2 (racemic)
158 to 160 °C	CCOC(=O)c1cnc2n(c1=O)CCc1cc(OC)ccc1-2
129 to 131 °C	Cc1ccc(S(=O)(=O)OCC2Cc3cccc([N+](=O)[O-])c3O2)cc1 (stereo not given)
> 230 °C	COc1ccc(S(=O)(=O)c2c(SC)nn3c(N)cc(C)nc23)cc1
166 to 177 °C	O=C1CCCN1C(c1ccccc1Cl)N1CCN(c2ncccn2)CC1 (stereo not given)
131 °C	N#CC(c1ccccc1)c1ccc(Cl)nn1 (stereo not given)
138 to 140 °C	CNc1c(C(=O)OC)cccc1[N+](=O)[O-]
149 to 150 °C	C[C@H]1c2onc(-c3ccc(Cl)cc3)c2CCC[C@H]1C(=O)O (relative stereo)
168 to 170 °C	CS(=O)(=O)c1ccc(-c2ccccc2Br)cc1
70 to 71 °C	CC(=O)n1c2ccccc2c2ccccc21
201 to 204 °C	O=C(O)Cc1ccc(NC(=O)C(COc2ccccc2)NS(=O)(=O)c2ccc(Br)cc2)cc1 (racemic)
177 to 179 °C	COc1ccc(-c2nc3sccn3c2/C=C/C(=O)c2cc(OC)c(OC)c(OC)c2)cc1
107 to 108 °C	CC(C)(C)OC(=O)N1CC(CCl)c2c1ccc1ccccc21 (stereo not given)
172 to 177 °C	O=C(CN1CCOCC1)N[C@@H](Cc1ccccc1)[C@@H](O)[C@H](O)[C@H](Cc1ccccc1)NC(=O)CN1CCOCC1
198 °C	O=S(=O)(Nc1ccc(Oc2cccc3cccnc23)c(Cl)c1)c1ccc(Cl)cc1
73 to 75 °C	COC(=O)CC1=C(C)/C(=C/c2ccc(SC)cc2)c2ccc(F)cc21
